Measured values reported in ChEMBL document CHEMBL6177958, “6,7-Dimethoxy-2-methyl-4-substituted quinazolines: Design, synthesis, EGFR inhibitory activity, in vitro cytotoxicity, and in silico studies” (Eur J Med Chem, 2025).

Tests used:
Assay type in all cases: functional
HCT-116 [1] = assay: Cell cycle arrest in human HCT-116 cells assessed as accumulation of cells at S phase by flow cytometry (reference value: 39.26%)
HCT-116 [2] = assay: Cell cycle arrest in human HCT-116 cells assessed as accumulation of cells at G0-G1 phase by flow cytometry (reference value: 46.33%)
HCT-116 [3] = assay: Cell cycle arrest in human HCT-116 cells assessed as accumulation of cells at G2-M phase by flow cytometry (reference value: 14.41%)
HCT-116 [4] = assay: Induction of apoptosis in human HCT-116 cells assessed as total apoptotic cells measured after 24 hrs by PI based flow cytometry (reference value: 2.38%)
HCT-116 [5] = assay: Induction of apoptosis in human HCT-116 cells assessed as late apoptotic cells measured after 24 hrs by PI based flow cytometry (reference value: […])
HCT-116 [6] = assay: Induction of apoptosis in human HCT-116 cells assessed as early apoptotic cells measured after 24 hrs by PI based flow cytometry (reference value: 0.43%)
HCT-116 [7] = assay: Induction of apoptosis in human HCT-116 cells assessed as necrotic apoptotic cells measured after 24 hrs by PI based flow cytometry (reference value: 1.84%)

`COc1cc2nc(C)nc(N/N=C/c3cc(CN4CCN(C)CC4)c(O)c(OC)c3)c2cc1OC` gave an Activity (HCT-116 [1]) of 49.11%, an Activity (HCT-116 [2]) of 42.18% and an Activity (HCT-116 [3]) of 8.71%. For the same compound, the Activity (HCT-116 [4]) was 39.88%, the Activity (HCT-116 [5]) was 11.27% and the Activity (HCT-116 [6]) was 26.13%. It also gave an Activity (HCT-116 [7]) of 2.48%.
